Test results from US20060154892A1, “Procedure to block the replication of reverse transcriptase dependent viruses by the use of inhibitors of deoxynucleotides synthesis” (priority 1993, published 2006).
Read-outs that look alike come from different tables or passages of the source.

Key:
HIV-1 IIIB [1] = test: expected p24 expression in HIV-1 IIIB infected PHA-stimulated PBL with hydroxyurea and/or nucleoside analogs (Example 10); format: cell-based
Protocol: PBL isolated from healthy donors are stimulated with PHA and IL-2 for 48 hours using standard protocols. At the same time, the cells are pre-treated with hydroxyurea alone or in combination with either ddI or fluorinated derivatives of chain-terminating nucleosides.

HIV-1 RT [2] = target: T1, HIV-1 RT (Human immunodeficiency virus type 1 group M subtype B, UniProt P04585); test: Km of HIV-1 RT for dNTP, 600-base globin mRNA template; format: biochemical; details: 600-base globin mRNA as template
[3] = test system: primary human macrophages; details: for Viable cells: Macrophages
HIV-1 strain Ba-L = test: p24 production in primary human macrophages infected with HIV-1 Ba-L; format: cell-based; details: for inhibition at 1000 µM: Human immunodeficiency virus 1, BAL, Macrophage
Protocol: Macrophages were obtained by cell adhesion after purification of PBL from healthy donors. After 14 days treatment with granulocyte-macrophage-colony-stimulating factor, cells were infected overnight with the HIV-1 strain Ba-L (Gartner et al., Science 233:215 (1986)). […] Supernatants were harvested ever 4-5 days for p24 analysis and fresh supernatant and drugs were added.
Percentages of HIV-1 inhibition were calculated based on p24 production compared to the untreated control. Drug treatment of macrophages was suspended after 14 days.

HIV-1 [HTLV-IIIB] = test: p24 production in activated PBL infected with HIV-1 [HTLV-IIIB], drugs added after infection; format: cell-based; details: for inhibition at 1000 µM: Human immunodeficiency virus 1, IIIB, PBMC
[4] = cited from earlier work
HIV-1 RT [5] = target: T1, HIV-1 RT; test: in vitro activity of recombinant HIV-1 RT (primer extension assay); format: biochemical; details: 200 mM
Protocol: We also assessed the in vitro activity of recombinant HIV-1 RT at dNTP concentrations that were equivalent to those found in quiescent and stimulated PBL. DNA was synthesized using a globin mRNA template and an oligo dT16 primer (a primer extension assay). The HIV-1 RT reaction mixture contained 50 mM Tris-HCl (pH 8.0), 6 mM MgCl2, 76 mM KCl, 0.5 mM DTT, 80 nM globin mRNA primed with oligo dT16 in 1:5 ratio, and dNTP at (a) the concentrations equivalent to quiescent cells and (b) the concentrations equivalent to stimulated cells as described in Table 1. Recombinant HIV-1 RT (obtained from American Biotechnologies) was used at 5 U/ml.

HIV-1 [6] = test system: HIV-1
From the text: In the latter procedure, we measured p24 production during the course of an in vitro infection to assess the inhibition of HIV-1 replication in activated PBL.

HIV-1 IIIB [7] = details: for RT Activity: 1 mM hydroxyurea
HIV-1 [8] = test: administration of hydroxyurea to HIV-1 seropositive volunteers, CD4+ T-cell count (Example 9); format: in vivo, human; details: 20-40 mg per kg per day, after one month of drug treatment
Protocol: One or more HIV-1 seropositive volunteers are first identified. Blood samples drawn from the volunteers are assayed for CD4^+T-cells using any suitable quantitation means. Such quantitation means include, but are not limited to, the flow cytometer. Over a period of from several weeks to months, the number of CD4^+T-cells is observed to decrease steadily as an indicator of disease progression.
The nucleoside analogs can be any of ddI, ddC or AZT, or combinations thereof.
When hydroxyurea is used in conjunction with a nucleoside analog, the dosage of the analog is determined according to convention in the medical and pharmaceutical arts.
After one month of drug treatment blood samples are again drawn and assayed for CD4^+T-cells.

HIV-1 [9] = details: for effect on HIV-1 replication at the lowest levels: in some cases, only when used individually, FIG. 3
Protocol: PBL from healthy donors were infected for 2 hour at 37° C. with HIV-1 [HTLV-IIIB] (m.o.i.=1) after 2 days stimulation with PHA and Interleukin-2 (IL-2). […] Every 3-4 days, supernatant was harvested for p24 analysis, cells were counted and fresh supernatant and drugs were added. Samples were analyzed for (a) p24 production in the supernatant, (b) count of viable cells, and (c) ratios between the values expressed in (a) and (b).
PBL were isolated and stimulated for 2 days with PHA and IL-2. […] The extent of HIV-1 infection was analyzed as described in Example 5. Samples were tested for (a) p24 production in the supernatant, (b) viable cell count.

PBL [10] = test: count of viable cells in HIV-1 infected activated PBL culture; format: cell-based, human; details: for Viable cells: PBMC, 1 mM Hydroxyurea
[11] = test system: dNTP pools in PHA stimulated PBL; test: dNTP pools in HIV-1 infected PHA-stimulated PBL treated with hydroxyurea (enzyme assay); format: cell-based, human; details: 1 mM hydroxyurea
Protocol: PBLs were cultured in the presence or absence of phytohemagglutinin A (PHA) at 10 μg/ml for 48 hours. Intracellular dNTP were extracted with 60% methanol and were examined by an enzyme assay using synthetic oligonucleotides (P. A. Sherman and A. J. Fyfe, 1989 Anal. Biochem. 180:222). Data represent the mean value of three experiments. […] The cellular volume of PBL was measured using a Coulter counter analizer and found to be approximately 0.25 μl/10^6 cells for quiescent PBL and 0.38 μl/10^6 cells for stimulated PBL, respectively.
Cell aliquots were harvested 24, 48 and 72 hours after infection and analyzed for the rate of dNTP synthesis inhibition (Sherman and Fyfe, supra) measured as the percentage of dNTP levels compared to the control cells.

PBL [12] = details: doses corresponding to plasma concentrations in treated AIDS patients; cited from earlier work
[13] = nucleoside analog 20 μM, day 12

Structure (SMILES): Nc1nc2c(ncn2[C@@H]2O[C@H](CO)C[C@@H]2F)c(=O)[nH]1 [2′-F-dd-ara-G]
- p24 Expression after Infection (HIV-1 IIIB [1]; nucleoside analog 20 μM, day 4): Low
- p24 Expression after Infection (HIV-1 IIIB [1]; nucleoside analog 20 μM, day 8): Medium
- p24 Expression after Infection (HIV-1 IIIB [1]; [13]): Medium

Structure (SMILES): Nc1ncnc2c1ncn2[C@H]1C[C@H](O)[C@@H](COP(=O)(O)OP(=O)(O)OP(=O)(O)O)O1 [dATP]
- Km (HIV-1 RT [2]): 2.6 µM

Structure (SMILES): Nc1ccn([C@H]2C[C@H](O)[C@@H](COP(=O)(O)OP(=O)(O)OP(=O)(O)O)O2)c(=O)n1 [dCTP]
- Km (HIV-1 RT [2]): 3.8 µM

Structure (SMILES): O=c1[nH]cnc2c1ncn2[C@@H]1O[C@H](CO)C[C@@H]1F [2′-F-dd-ara-I]
- p24 Expression after Infection (HIV-1 IIIB [1]; nucleoside analog 20 μM, day 4): Low
- p24 Expression after Infection (HIV-1 IIIB [1]; nucleoside analog 20 μM, day 8): Medium
- p24 Expression after Infection (HIV-1 IIIB [1]; [13]): Medium

Structure (SMILES): NC(=O)NO [hydroxyurea]
- cytotoxic effects [3]: no cytotoxic effects were observed
- Viable cells ([3]; 1 mM Hydroxyurea, day 4): 300 thousands/cm^2
- Viable cells ([3]; 1 mM Hydroxyurea, day 7): 280 thousands/cm^2
- Viable cells ([3]; 1 mM Hydroxyurea, day 10): 270 thousands/cm^2
- Viable cells ([3]; 1 mM Hydroxyurea, day 14): 270 thousands/cm^2
- Viable cells ([3]; day 21, drug suspension after 14 days): 260 thousands/cm^2
- Viable cells ([3]; day 28, drug suspension after 14 days): 240 thousands/cm^2
- Viable cells ([3]; day 35, drug suspension after 14 days): 190 thousands/cm^2
- inhibition at 1000 µM (HIV-1 strain Ba-L; 96 h): 100%
- inhibition at 1000 µM (HIV-1 strain Ba-L; 168 h): 100%
- inhibition at 1000 µM (HIV-1 strain Ba-L; 240 h): 100%
- inhibition at 1000 µM (HIV-1 strain Ba-L; 336 h): 100%
- HIV-1 replication (HIV-1 strain Ba-L; continuous treatment with 1 mM hydroxyurea, macrophages): completely blocked HIV-1 replication
- block of HIV-1 replication (HIV-1 strain Ba-L; hydroxyurea as low as 0.05 mM, macrophages): > 99.9%
- HIV-1 replication after discontinuing the drug treatment (HIV-1 strain Ba-L; infected macrophages, several weeks after discontinuing, in some experiments): absence of HIV-1 replication
- dose-dependent inhibition of HIV-1 production in macrophages compared with PBL (HIV-1 strain Ba-L; same donor for PBL and macrophages): consistently more potent than with primary PBL
- inhibition at 1000 µM (HIV-1 [HTLV-IIIB]; 96 h): 100%
- inhibition at 1000 µM (HIV-1 [HTLV-IIIB]; 168 h): 100%
- inhibition at 1000 µM (HIV-1 [HTLV-IIIB]; 240 h): 100%
- inhibition at 1000 µM (HIV-1 [HTLV-IIIB]; 336 h): 100%
- HIV-1 replication (HIV-1 [HTLV-IIIB]; continuous treatment with 1 mM hydroxyurea, activated PBL): completely blocked HIV-1 replication
- antiviral effect, p24 normalized to number of viable cells (HIV-1 [HTLV-IIIB]; low concentrations, FIG. 1c): not mediated by cytotoxicity
- HIV-1 replication (p24 in supernatant) (HIV-1 [HTLV-IIIB]; used alone at low concentrations, FIG. 1a): inhibited in a dose-dependent manner
- blood concentration during standard clinical protocols ([4]; humans): ~1000 µM
- absorption ([4]; oral ingestion): readily absorbed after oral ingestion
- direct inhibition of RT enzymatic activity (HIV-1 RT [5]): did not directly inhibit RT enzymatic activity
- p24 after infection (HIV-1 [6]; HU 10 μM, day 4): 4 ng/mL
- p24 after infection (HIV-1 [6]; HU 10 μM, day 8): 100 ng/mL
- p24 after infection (HIV-1 [6]; HU 10 μM, day 12): 204 ng/mL
- p24 after infection (HIV-1 [6]; HU 50 μM, day 4): 3 ng/mL
- p24 after infection (HIV-1 [6]; HU 50 μM, day 8): 113 ng/mL
- p24 after infection (HIV-1 [6]; HU 50 μM, day 12): 148 ng/mL
- p24 after infection (HIV-1 [6]; HU 100 μM, day 4): 2 ng/mL
- p24 after infection (HIV-1 [6]; HU 100 μM, day 8): 111 ng/mL
- p24 after infection (HIV-1 [6]; HU 100 μM, day 12): 116 ng/mL
- RT Activity (HIV-1 IIIB [7]; day 2): 0.892 cpm/ml × 1000
- RT Activity (HIV-1 IIIB [7]; day 5): 0.589 cpm/ml × 1000
- RT Activity (HIV-1 IIIB [7]; day 9): 0.434 cpm/ml × 1000
- viral expression of RT (HIV-1 IIIB [7]; pre-infection treatment with 1 mM hydroxyurea): significantly reduced
- CD4+ T-cell population (HIV-1 [8]): stabilized or increased
- p24 Expression after Infection (HIV-1 IIIB [1]; HU 50 μM, day 4): Low
- p24 Expression after Infection (HIV-1 IIIB [1]; HU 50 μM, day 8): Medium
- p24 Expression after Infection (HIV-1 IIIB [1]; HU 50 μM, day 12): High
- effect on HIV-1 replication at the lowest levels (HIV-1 [9]): stimulated HIV-1 replication
- HIV-1 replication (HIV-1 [9]; patient PBL, FIG. 3a): inhibited HIV-1 replication in a dose-dependent manner
- cytotoxic effects (PBL [10]; 0.1 mM hydroxyurea, continuous exposure, FIG. 1b): some cytotoxic effects
- toxicity (PBL [10]; 1 mM hydroxyurea, activated PBL): toxic effects at these concentrations were observed early
- Viable cells (PBL [10]; day 4): 500 thousands/ml
- Viable cells (PBL [10]; day 7): 185 thousands/ml
- Viable cells (PBL [10]; day 10): 87 thousands/ml
- Viable cells (PBL [10]; day 14): 36 thousands/ml
- cytostatic and cytotoxic effects (PBL [10]; decreased drug concentration, FIG. 1b): virtually disappeared
- dNTP pools in stimulated PBL [11]: substantially depleted

Structure (SMILES): O=c1[nH]cnc2c1ncn2[C@H]1CC[C@@H](CO)O1 [ddI, didanosine]
- p24 after infection (HIV-1 [6]; ddI 0.2 μM, day 4): 4 ng/mL
- p24 after infection (HIV-1 [6]; ddI 0.2 μM, day 8): 116 ng/mL
- p24 after infection (HIV-1 [6]; ddI 0.2 μM, day 12): 197 ng/mL
- p24 after infection (HIV-1 [6]; ddI 1 μM, day 4): 3 ng/mL
- p24 after infection (HIV-1 [6]; ddI 1 μM, day 8): 90 ng/mL
- p24 after infection (HIV-1 [6]; ddI 1 μM, day 12): 196 ng/mL
- p24 after infection (HIV-1 [6]; ddI 5 μM, day 4): 1 ng/mL
- p24 after infection (HIV-1 [6]; ddI 5 μM, day 8): 58 ng/mL
- p24 after infection (HIV-1 [6]; ddI 5 μM, day 12): 125 ng/mL
- p24 after infection (HIV-1 [6]; ddI 20 μM, day 4): 1 ng/mL
- p24 after infection (HIV-1 [6]; ddI 20 μM, day 8): 25 ng/mL
- p24 after infection (HIV-1 [6]; ddI 20 μM, day 12): 51 ng/mL
- cytotoxicity (PBL [12]): low
- p24 Expression after Infection (HIV-1 IIIB [1]; nucleoside analog 20 μM, day 4): Low
- p24 Expression after Infection (HIV-1 IIIB [1]; nucleoside analog 20 μM, day 8): Medium
- p24 Expression after Infection (HIV-1 IIIB [1]; [13]): Medium
- effect on HIV-1 replication at the lowest levels (HIV-1 [9]): stimulated HIV-1 replication

Structure (SMILES): Nc1ncnc2c1ncn2[C@@H]1O[C@H](CO)C[C@@H]1F [2′-F-dd-ara-A]
- p24 Expression after Infection (HIV-1 IIIB [1]; nucleoside analog 20 μM, day 4): Low
- p24 Expression after Infection (HIV-1 IIIB [1]; nucleoside analog 20 μM, day 8): Medium
- p24 Expression after Infection (HIV-1 IIIB [1]; [13]): Medium

Structure (SMILES): Nc1nc2c(ncn2[C@H]2C[C@H](O)[C@@H](COP(=O)(O)OP(=O)(O)OP(=O)(O)O)O2)c(=O)[nH]1 [dGTP]
- Km (HIV-1 RT [2]): 3.9 µM

Structure (SMILES): Cc1cn([C@H]2C[C@H](O)[C@@H](COP(=O)(O)OP(=O)(O)OP(=O)(O)O)O2)c(=O)[nH]c1=O [dTTP]
- Km (HIV-1 RT [2]): 4 µM
